According to patent US6664058B2, “Base analogues” (Amersham Biosciences UK Limited, priority 2000, dated 2003):

System: exonuclease free Klenow fragment DNA polymerase I (EFK)
Conditions: 40 μM test compound alone or with 4 μM dNTPαS; 33P 15 mer primer / 24 mer template; one unit EFK; 37° C., 3 minutes
Method: Primer Extension Assays to Study the Incorporation of Triphosphate 5 by DNA Polymerases
A primer extension assay was used to evaluate the triphosphate 5 as a substrate for exonuclease free Klenow fragment DNA polymerase I (EFK). The assay used a ^33P 5′ end labelled 15 mer primer hybridised to a 24 mer template. The sequences of the primer and template are:
One picomole ^33P labelled primer was hybridised to 2 picomoles of template in ×2 Klenow buffer (100 mM Tris-HCl pH 7.5, 10 mM MgCl2., 10 mM 2-mercaptoethanol) To this was added either 4 μM dNTPαS or 40 μM (test compound 5c) or a mixture of 4 μM dNTPαS and 40 μM (test compound). One unit EFK and 20 mU inorganic pyrophosphatase were used per reaction. Primer alone, primer plus template plus enzyme controls were also carried out. The reactions were incubated at 37° C. for 3 minutes. Reactions were then stopped by the addition of formamide/EDTA stop solution. Reaction products were separated on a 20% polyacrylamide 7M urea gel and the product fragments sized by comparison with the labelled primer and the products of extensions in the presence of 4 μM dNTPαS after exposure to Kodak Biomax autoradiography film.

## Cc1cc2c(nn1)NC(=O)N([C@H]1C[C@H](O)[C@@H](COP(=O)(O)OP(=O)(O)OP(=O)(O)O)O1)C2 [compound 5, 6-(β-D-2-Deoxyribofuranosyl)-5-hydro-3-methyl-8H-pyrimido[4,5-c][1,2]pyridazin-7-one-5′-triphosphate]
  natural nucleotide in place of which the test compound is incorporated: incorporated in place of dTTP
